The values that follow come from patent publication US12604900B2, “Penflufen as a wood preservative against wood- destroying basidiomy cetes” (LANXESS Deutschland GmbH, priority 2010, dated 2026).

The test system of test [1] is Coriolus versicolor. The test is described as follows: Synergism test (MIC of radial hyphae growth, SI by Kull). It is filed as cell-based. The conditions noted are these: Trametes versicolor. How it is done:
(§1) Mycelium pieces were punched out of a colony of the wood-destroying fungus in question and incubated on a malt extract/peptone-containing nutrient agar at 26° C. The growth of the hyphae with and without active compound was compared. The minimum inhibitory concentration (MIC) stated was the concentration at which the radial hyphae growth was suppressed completely.
(§2) The synergism was determined using the method described by Kull et al. (F. C. Kull, P. C. Eismann, H. D. Sylvestrowicz, R. L. Mayer, Applied Microbiology 1961, 9, 538-541).

For test [2], the system named is Coniophora puteana. As to the kind of experiment: Inhibition test with giant colonies of wood-destroying basidiomycetes. The test is classed as cell-based. The conditions noted are these: 168 h, 1 ppm active compound, agar, 26° C., about 1 week. How it is done: (§3) Mycelium pieces were punched out of colonies of Coniophora puteana, Poria placenta, Lentinus tigrinus, Coriolus versicolor and Gloeophyllum trabeum and incubated on an agar nutrient soil at 26° C. The inhibition of the growth of the hyphae on active compound-comprising nutrient soil was compared to the longitudinal growth without addition of active compound and rated as inhibition in percent (incubation time: about 1 week, depending on the fungal growth of the comparative sample without active compound).

The subject of test [3] is Coriolus versicolor. The description is as above. It is filed as cell-based. Particulars: Trametes versicolor, 168 h; 1 ppm active compound, agar, 26° C., about 1 week. How it is done:
as §3

Test [4] deals with Gloeophyllum trabeum. The description is as above. The conditions noted are these: 168 h, 1 ppm active compound, agar, 26° C., about 1 week. The test is classed as cell-based. On the procedure:
as §3

Test [5] deals with Lentinus tigrinus. The description is as above. The test is classed as cell-based. Particulars: 168 h, 1 ppm active compound, agar, 26° C., about 1 week. How it is done:
as §3

The subject of test [6] is Poria placenta. The description is as above. It is filed as cell-based. Particulars: 168 h; 1 ppm active compound, agar, 26° C., about 1 week. How it is done:
as §3

Test [7] concerns Poria placenta. The test is described as follows: Synergism test (MIC of radial hyphae growth, SI by Kull). It is filed as cell-based. On the procedure:
as §1, §2

Test [8] relates to Coniophora puteana. Described as above. It is filed as cell-based. How it is done:
as §1, §2

For test [9], the system named is Lentinus tigrinus. The test is described as above. The test is classed as cell-based. Particulars: read-out: MIC (ppm) Lentinus tigrinus. On the procedure: as §1, §2
The test system of test [10] is Stereum sanguinolentum. The test is described as above. It is filed as cell-based. Particulars: 2.4 penflufen and tebuconazole, read-out: MIC against Stereum sanguinolentum (ppm). On the procedure:
as §1, §2

For test [11], the system named is Gloeophyllum trabeum. Described as above. The test is classed as cell-based. The conditions noted are these: 2.3 penflufen and copper(II) oxide, read-out: MIC against Gloeophyllum trabeum (ppm). On the procedure:
Mycelium pieces were punched out of a colony of the wood-destroying fungus in question and incubated on a malt extract/peptone-containing nutrient agar at 26° C. […] The minimum inhibitory concentration (MIC) stated was the concentration at which the radial hyphae growth was suppressed completely.

The test system of test [12] is Poria placenta. As to the kind of experiment: Activity test analogously to EN113 on drenched pine specimens. Particulars: for Loss of mass [%]: pine, 6 weeks, mean of 6 specimens (untreated: 20). On the procedure: (§4) Penflufen (I) was tested analogously to the EN113 standard test for activity against wood-destroying fungi. In contrast to the standard test, smaller pieces of wood were used and the pieces of wood were exposed to attack by the fungi for a shorter period of time.
(§5) To this end, dried test specimen (25×15×4 mm) made of pine (Pinus sylvestris) were in each case vacuum-drenched with solutions of penflufen (I) in toluene. From the concentration of penflufen (I) in the drench solution and the uptake of the drench solution into the test specimen, the amount of active compound taken up by the test specimen (retention) was calculated. The test specimens were dried and then weighed. To prevent falsifying colonisation by foreign pathogens, the test specimen were sterilised with y rays.
The test specimen were brought into contact with the wood-destroying organism Poria placenta and stored for 6 weeks. The test pieces of wood were then cleaned, dried and weighed. This was used to calculate the loss of mass. For each retention, the mean of 6 test specimens was determined.

The test system of test [13] is Coniophora puteana. The description is as above. Particulars: for Loss of mass [%]: pine, 6 weeks, mean of 6 specimens (untreated: 24). On the procedure: as §4, §5
The test specimens were brought into contact with the wood-destroying organism Coniophora puteana and stored for 6 weeks. The test pieces of wood were then cleaned, dried and weighed. This was used to calculate the loss of mass. For each retention, the mean of 6 test specimens was determined.

Setting [14] is: 2.9 penflufen and bifenthrin, read-out: MIC against Coriolus versicolor (ppm).
[15] abbreviates: 2.2 penflufen and fenpropimorph, read-out: MIC (ppm) Coniophora puteana.
The mark [16] stands for this setting: 2.2 penflufen and fenpropimorph.
The mark [17] stands for this setting: 2.5 penflufen and propiconazole, read-out: MIC against Coniophora puteana (ppm).
Where [18] appears, read: 2.1 penflufen and thiabendazole, malt extract/peptone agar 26° C., read-out: MIC against Coriolus versicolor (ppm).
The mark [19] stands for this setting: 2.6 penflufen and permethrin, read-out: MIC against Poria placenta (ppm).
Setting [20] is: result in words, EN113-like test.
Setting [21] is: retention of penflufen 50 g/m^3.

The structures appear in SMILES notation. Where two headings read alike, the source gives them in different places. A value given as a limit tells only on which side of the number the result lay.

As to `Cc1c(COC(=O)[C@@H]2[C@H](/C=C(\Cl)C(F)(F)F)C2(C)C)cccc1-c1ccccc1` (racemic) [bifenthrin, reference compound], the minimal inhibitory concentration (MIC) in test [1] (setting [14]) came to 60 µg/mL.
In the case of `C=C(c1ccccc1NC(=O)c1c(C)nn(C)c1F)C(C)C` [III], the inhibition at 1 ppm in [2] amounted to 25%; in test [3], 78%; in test [4], 18%; in test [5] it was 37%; in test [6], 45%.
For `CCCC(C)c1ccccc1NC(=O)c1c(C)nn(C)c1F` (stereo not shown) [II], the inhibition at 1 ppm amounted to 12% in [2]; 15% in [3]; 11% in test [4]; 17% in [5]; 3% in test [6].
For `CC1(C)C(C=C(Cl)Cl)C1C(=O)OC(C#N)c1cccc(Oc2ccccc2)c1` (stereo not shown) [cypermethrin, reference compound], the MIC in [1] (read-out: MIC (ppm) Coriolus versicolor) and in test [7] (read-out: MIC (ppm) Poria placenta) was above 100 µg/mL in each case.
Regarding `CCOc1ccc(C(C)(C)COCc2cccc(Oc3ccccc3)c2)cc1` [etofenprox, reference compound], the MIC in test [7] (2.7 penflufen and etofenprox, read-out: MIC against Poria placenta (ppm)) is above 100 µg/mL.
`CC(Cc1ccc(C(C)(C)C)cc1)CN1C[C@@H](C)O[C@@H](C)C1` (stereo partly shown) [fenpropimorph, reference compound]: the MIC in test [8] (setting [15]) and in test [9] (setting [16]) was 30 µg/mL each time.
As for `Cc1nn(C)c(F)c1C(=O)Nc1ccccc1C(C)CC(C)C` (stereo not shown) [penflufen], the inhibition at 1 ppm in test [2], in test [3], in [4], in [5] and in test [6] was 100% each time. Also, the MIC in [8] (setting [15]) was 1 µg/mL; in [8] (setting [17]), 3 µg/mL; in [8] (2.8 penflufen and prochloraz, read-out: MIC (ppm) Coniophora puteana) it was 3 µg/mL; in test [1] (2.10 penflufen and cypermethrin, read-out: MIC (ppm) Coriolus versicolor), 0.1 µg/mL; in [1] (setting [18]), 0.3 µg/mL; in test [1] (setting [14]) it was 0.1 µg/mL. Further, the MIC in test [9] (setting [16]) is 0.5 µg/mL; in test [9] (2.8 penflufen and prochloraz) it was 0.3 µg/mL; in test [7] (2.10 penflufen and cypermethrin, read-out: MIC (ppm) Poria placenta), 0.1 µg/mL; in [7] (setting [19]) it was 0.1 µg/mL; in test [10], 3 µg/mL; in [11], 0.3 µg/mL. In addition, in [7] (2.7 penflufen and etofenprox), the “MIC against Poria placenta (ppm)” value stood at 0.1 ppm. Further, the “activity against the wood-destroying fungus Poria placenta” value in [12] (setting [20]) is “very good activity”. Also, the “Loss of mass [%]” value in [12] (setting [21]), in test [12] (retention of penflufen 102 g/m^3), in test [13] (setting [21]) and in test [13] (retention of penflufen 103 g/m^3) was 0% throughout. The “activity against the wood-destroying fungus Coniophora puteana” value in [13] (setting [20]) is “very good activity”.
As to `CC1(C)C(C=C(Cl)Cl)C1C(=O)OCc1cccc(Oc2ccccc2)c1` (stereo not shown) [permethrin, reference compound], the MIC in test [7] (setting [19]) is above 100 µg/mL.
Take `CCCN(CCOc1c(Cl)cc(Cl)cc1Cl)C(=O)n1ccnc1` [prochloraz, reference compound]: the MIC in [8] (read-out: MIC (ppm) Coniophora puteana) is above 30 µg/mL; in [9], 20 µg/mL.
For `CCCC1COC(Cn2cncn2)(c2ccc(Cl)cc2Cl)O1` (stereo not shown) [propiconazole, reference compound], the minimal inhibitory concentration (MIC) in test [8] (setting [17]) was found to be 3 µg/mL.
Consider `CC(C)(C)C(O)(CCc1ccc(Cl)cc1)Cn1cncn1` (stereo not shown) [tebuconazole, reference compound], for which, in [10], the MIC is 6 µg/mL.
Take `c1ccc2[nH]c(-c3cscn3)nc2c1` [thiabendazole, reference compound]: the MIC in test [1] (setting [18]) was 3 µg/mL.
